Measured values published in patent US10023543B2 (CELGENE QUANTICEL RESEARCH, INC., priority 2014, dated 2018).

system: THP-1 (AML) cells; assay: LSD1 CD11b cellular assay (flow cytometry); type: cell-based; settings: Homo sapiens, THP-1, 96 h; CD11b expressing cells, 4 days; read-out: THP-1 IC50

IC50 | Structure (SMILES)
< 100 nM | COc1c(F)cc(-c2c(-c3ccc(C#N)cc3)nc(N3CCC(N)CC3)n(C)c2=O)cc1F [Example 38, 4-[2-(4-aminopiperidyl)-5-(3,5-difluoro-4-methoxyphenyl)-1-methyl-6-oxohydropyrimidin-4-yl]benzenecarbonitrile]
< 100 nM | COc1ccc(-c2c(-c3ccc(C#N)c(F)c3)nc(N3CCC[C@H](N)C3)n(C)c2=O)cc1 [Example 31, 4-[2-((3S)-3-amino-piperidin-1-yl)-5-(4-methoxy-phenyl)-1-methyl-6-oxo-1,6-dihydro-pyrimidin-4-yl]-2-fluoro-benzonitrile]
< 100 nM | COc1ccc(-c2c(-c3ccc(C#N)c(F)c3)nc(N3CCC[C@@H](N)C3)n(C)c2=O)cc1 [Example 30, 4-[2-((3R)-3-aminopiperidyl)-5-(4-methoxyphenyl)-1-methyl-6-oxohydro-pyrimidin-4-yl]-2-fluorobenzenecarbonitrile]
< 100 nM | Cn1c(N2CCC(N)CC2)nc(-c2ccc(C#N)c(F)c2)c(-c2ccc(N)cc2)c1=O [Example 89, 4-[5-(4-aminophenyl)-2-(4-aminopiperidin-1-yl)-1-methyl-6-oxopyrimidin-4-yl]-2-fluorobenzonitrile]
< 100 nM | CNc1ccc(-c2c(-c3ccc(C#N)c(F)c3)nc(N3CCC(N)CC3)n(C)c2=O)cc1 [Example 90, 4-[2-(4-aminopiperidin-1-yl)-1-methyl-5-[4-(methylamino)phenyl]-6-oxopyrimidin-4-yl]-2-fluorobenzonitrile]
< 100 nM | Cn1c(N2CCC(N)CC2)nc(-c2ccc(C#N)cc2)c(-c2ccc(OCCO)cc2)c1=O [Example 97, 4-[2-(4-aminopiperidin-1-yl)-5-[4-(2-hydroxyethoxy)phenyl]-1-methyl-6-oxopyrimidin-4-yl]benzonitrile]
< 100 nM | CN(C)C1CCN(c2nc(-c3ccc(C#N)c(F)c3)c(-c3ccc4cn(C)nc4c3)c(=O)n2C)CC1 [Example 80, 4-[2-(4-dimethylamino-piperidin-1-yl)-1-methyl-5-(2-methyl-2H-indazol-6-yl)-6-oxo-1,6-dihydro-pyrimidin-4-yl]-2-fluoro-benzonitrile]
100 to 1000 nM | CCc1ccc(-c2c(-c3ccc(C#N)cc3)nc(N3CCC(N)CC3)n(C)c2=O)cn1 [Example 10, 4-[2-(4-amino-piperidin-1-yl)-5-(6-ethyl-pyridin-3-yl)-1-methyl-6-oxo-1,6-dihydro-pyrimidin-4-yl]-benzonitrile]
< 100 nM | COc1ccc(-c2c(-c3ccc(C#N)c(F)c3)nc(N3CCC[C@@H](N)C3)n(C)c2=O)cc1F [Example 25, 4-[2-((3R)-3-aminopiperidyl)-5-(3-fluoro-4-methoxyphenyl)-1-methyl-6-oxohydropyrimidin-4-yl]-2-fluorobenzenecarbonitrile]
< 100 nM | COc1ccc(-c2c(-c3ccc(C#N)c(F)c3)nc(N3CCC(N)CC3)n(CC(N)=O)c2=O)cc1 [Example 16, 2-[2-(4-amino-piperidin-1-yl)-4-(4-cyano-3-fluoro-phenyl)-5-(4-methoxy-phenyl)-6-oxo-6H-pyrimidin-1-yl]-acetamide]
< 100 nM | COc1ccc(-c2c(-c3ccc(C#N)c(F)c3)nc(N3CCC4(CCNC4)CC3)n(C)c2=O)cc1F [Example 22, 4-[2-(2,8-diaza-spiro[4.5]dec-8-yl)-5-(3-fluoro-4-methoxy-phenyl)-1-methyl-6-oxo-1,6-dihydro-pyrimidin-4-yl]-2-fluoro-benzonitrile]
< 100 nM | COCCOc1ccc(-c2c(-c3ccc(C#N)c(F)c3)nc(N3CCC(N)CC3)n(C)c2=O)cc1 [Example 98, 4-[2-(4-aminopiperidin-1-yl)-5-[4-(2-methoxyethoxy)phenyl]-1-methyl-6-oxopyrimidin-4-yl]-2-fluorobenzonitrile]
< 100 nM | COc1ccc(-c2c(-c3ccc(C#N)c(F)c3)nc(N3CC[C@@H](N)C3)n(C)c2=O)cc1F [Example 27, 4-[2-((3R)-3-aminopyrrolidinyl)-5-(3-fluoro-4-methoxyphenyl)-1-methyl-6-oxohydropyrimidin-4-yl]-2-fluorobenzenecarbonitrile]
< 100 nM | COc1ncc(-c2c(-c3ccc(C#N)c(F)c3)nc(N3CCC(N)CC3)n(C)c2=O)cc1F [Example 26, 4-[2-(4-aminopiperidyl)-5-(5-fluoro-6-methoxy(3-5,6-dihydropyridyl))-1-methyl-6-oxohydropyrimidin-4-yl]-2-fluorobenzenecarbonitrile]
100 to 1000 nM | COc1ccc(-c2c(-c3ccc(C#N)c(F)c3)nc(N3CC(CN)C3)n(C)c2=O)cc1 [Example 69, 4-[2-(3-aminomethyl-azetidin-1-yl)-5-(4-methoxy-phenyl)-1-methyl-6-oxo-1,6-dihydro-pyrimidin-4-yl]-2-fluoro-benzonitrile]
1000 to 10000 nM | COc1ccc(-c2c(-c3ccc(C#N)c(F)c3)nc(N3CCC(N)CC3)n(CC(=O)O)c2=O)cc1 [Example 15, [2-(4-amino-piperidin-1-yl)-4-(4-cyano-3-fluoro-phenyl)-5-(4-methoxy-phenyl)-6-oxo-6H-pyrimidin-1-yl]-acetic acid]
< 100 nM | Cn1cc2cc(-c3c(-c4ccc(C#N)c(F)c4)nc(N4CCC(N)CC4)n(C)c3=O)ccc2n1 [Example 37, 4-[2-(4-aminopiperidyl)-1-methyl-5-(2-methyl(2H-indazol-5-yl))-6-oxohydropyrimidin-4-yl]-2-fruorobenzenecarbonitrile]

IC50 | Structure (SMILES)
< 100 nM | Cn1c(N2CCC(N)CC2)nc(-c2ccc(C#N)c(F)c2)c(C#CC2CCCC2)c1=O [Example 14, 4-[2-(4-amino-piperidin-1-yl)-5-cyclopentylethynyl-1-methyl-6-oxo-1,6-dihydro-pyrimidin-4-yl]-2-fluoro-benzonitrile]
< 100 nM | CNC1CCN(c2nc(-c3ccc(C#N)c(F)c3)c(-c3ccc(OC)nc3)c(=O)n2C)CC1 [Example 58, 2-fluoro-4-[5-(6-methoxy-pyridin-3-yl)-1-methyl-2-(4-methylamino-piperidin-1-yl)-6-oxo-1,6-dihydro-pyrimidin-4-yl]-benzonitrile]
< 100 nM | COc1ccc(-c2c(-c3ccc(C#N)c(F)c3)nc(N3CCC(N)CC3)[nH]c2=O)cc1 [Example 122, 4-[2-(4-amino-piperidin-1-yl)-5-(4-methoxy-phenyl)-6-oxo-1,6-dihydro-pyrimidin-4-yl]-2-fluoro-benzonitrile]
100 to 1000 nM | C#Cc1c(-c2ccc(C#N)c(F)c2)nc(N2CCC(N)CC2)n(C)c1=O [Example 110]
< 100 nM | CN(C)c1ccc(-c2c(-c3ccc(C#N)cc3)nc(N3CCCNCC3)n(C)c2=O)cn1 [Example 67, 4-[2-[1,4]diazepan-1-yl-5-(6-dimethylamino-pyridin-3-yl)-1-methyl-6-oxo-1,6-dihydro-pyrimidin-4-yl]-benzonitrile]
< 100 nM | CNC1CCN(c2nc(-c3ccc(C#N)c(F)c3)c(-c3ccc(OC)cc3)c(=O)n2C)CC1 [Example 11, 2-fluoro-4-[5-(4-methoxy-phenyl)-1-methyl-2-(4-methylamino-piperidin-1-yl)-6-oxo-1,6-dihydro-pyrimidin-4-yl]-benzonitrile]
< 100 nM | Cn1c(N2CCC(N)CC2)nc(-c2ccc(C#N)c(F)c2)c(-c2ccc(S(C)(=O)=O)cc2)c1=O [Example 105, 4-[2-(4-aminopiperidin-1-yl)-1-methyl-5-(4-methylsulfonylphenyl)-6-oxopyrimidin-4-yl]-2-fluorobenzonitrile]
< 100 nM | Cn1c(N2CCC(N)CC2)nc(-c2ccc(C#N)c(F)c2)c(-c2ccc(CCO)cc2)c1=O [Example 99, 4-[2-(4-aminopiperidin-1-yl)-5-[4-(2-hydroxyethyl)phenyl]-1-methyl-6-oxopyrimidin-4-yl]-2-fluorobenzonitrile]
100 to 1000 nM | Cn1c(N2CCC(N)CC2)nc(-c2ccc(C#N)cc2)c(-c2ccc(C(N)=O)c(F)c2)c1=O [Example 41, 4-[2-(4-aminopiperidyl)-6-(4-cyanophenyl)-3-methyl-4-oxo(3-hydropyrimidin-5-yl)]-2-fluorobenzamide]
< 100 nM | CNC1CCN(c2nc(-c3ccc(C#N)c(F)c3)c(-c3ccc4c(cnn4C)c3)c(=O)n2C)CC1 [Example 87, 2-fluoro-4-[1-methyl-2-[4-(methylamino)piperidin-1-yl]-5-(1-methylindazol-5-yl)-6-oxopyrimidin-4-yl]benzonitrile]
100 to 1000 nM | COc1ccc(-c2c(-c3ccc(C#N)cc3)nc(NC[C@H]3CCNC3)n(C)c2=O)cc1F [Example 44, 4-{5-(3-fluoro-4-methoxy-phenyl)-1-methyl-6-oxo-2-[(3S)-(pyrrolidin-3-ylmethyl)-amino]-1,6-dihydro-pyrimidin-4-yl}-benzonitrile]
100 to 1000 nM | COc1ccc(-c2c(-c3ccc(C#N)cc3)nc(N3CCCNCC3)n(C)c2=O)cn1 [Example 62]
< 100 nM | COc1ccc(-c2c(-c3ccc(C#N)c(F)c3)nc(N(C)C[C@H]3CCNC3)n(C)c2=O)cc1 [Example 54, 2-fluoro-4-[5-(4-methoxy-phenyl)-1-methyl-2-(methyl-(3S)-pyrrolidin-3-ylmethyl-amino)-6-oxo-1,6-dihydro-pyrimidin-4-yl]-benzonitrile]
< 100 nM | COc1ccc(-c2c(-c3ccc(C#N)c(F)c3)nc(N3CC[C@@H](N)[C@@H](F)C3)n(C)c2=O)cc1 [Example 78, 4-[2-((4R,3S)-4-amino-3-fluoro-piperidin-1-yl)-5-(4-methoxy-phenyl)-1-methyl-6-oxo-1,6-dihydro-pyrimidin-4-yl]-2-fluoro-benzonitrile]
< 100 nM | Cn1c(N2CCC(N)CC2)nc(-c2ccc(C#N)c(F)c2)c(-c2ccc(F)cc2)c1=O [Example 101, 4-[2-(4-aminopiperidin-1-yl)-5-(4-fluorophenyl)-1-methyl-6-oxopyrimidin-4-yl]-2-fluorobenzonitrile]
< 100 nM | Cn1c(N2CCC(N)CC2)nc(-c2ccc(C#N)c(F)c2)c(-c2ccc3c(ccn3C)c2)c1=O [Example 74, 4-[2-(4-amino-piperidin-1-yl)-1-methyl-5-(1-methyl-1H-indol-5-yl)-6-oxo-1,6-dihydro-pyrimidin-4-yl]-2-fluoro-benzonitrile]
100 to 1000 nM | COc1ccc(-c2c(-c3ccc(C#N)c(F)c3)nc(N3CC[C@H](N)C3)n(C)c2=O)cc1F [Example 29, 4-[2-((3S)-3-amino-pyrrolidin-1-yl)-5-(3-fluoro-4-methoxy-phenyl)-1-methyl-6-oxo-1,6-dihydro-pyrimidin-4-yl]-2-fluoro-benzonitrile]
